One assay relates to HIV-192BR014. Nature of the assay: Anti-HIV combination activity in activated PBMCs, p24 ELISA, Chou-Talalay. Format: cell-based. The note with it: PBMC, HIV-1 92BR014, p24 day 7; combination value refers to the API in bold font (GRFT); read-out: Dm, median-effect dose (IC50). (In an ELISA, binding on a coated surface is turned into a signal by an enzyme label.)
Assay [1] concerns HSV-2 G strain. Nature of the assay: Dye-uptake PrestoBlue antiviral assay in Vero cells. To be noted: 6 day incubation, combination value based on API with bold font. Format: cell-based. How it is done: We previously reported that the combination of ZA and CG results in a potent antiviral synergy against HSV-2. Fernandez-Romero, J. A., et al., Antimicrobial agents and chemotherapy, 2012. 56(1): p. 358-68. […] Briefly, HSV-2 G strain and different concentrations of each compound or their combinations (based on equipotency IC50 ratios) were pre-incubated at 37° C. and added to Vero cells followed by a 6 day incubation at 37° C., 5% CO2 and 98% humidity. A dye-uptake PrestoBlue assay was performed to test antiviral activity. Relative fluorescent units (RFU) were measured at 570 nm for excitation and 600 nm for emission. The % of virus replication was calculated using the following formula: % Virus replication=[(O.Dcell control−O.Dcompound)/(O.Dcell control−O.Dvirus control)]*100. IC50 values were calculated using a dose-response-inhibition analysis on GraphPad Prism v 5.0 software. As provided therein, ¶ IC50 or % IC50 reduction values are based on API with bold font; NA=Not applicable.

The subject of another assay is HIV-1. The note with it: p24 ELISA and RT; cited from earlier work.
For a further assay, the system named is HIV-1ADA-M (R5 virus). The experiment in a line: MAGI assay in TZM-bl cells, anti-HIV activity. To be noted: 72 h, FIG. 1A. Format: cell-based. How it is done:
(§1) FIG. 1 includes logarithmic plots which show the percentage of virus replication in the presence of GRFT (nM). Data in FIG. 1 A and FIG. 1 B confirm that GRFT has potent activity against HIV. […] In FIG. 1A, anti-HIV activity was tested in TZM-bl cells using the MAGI assay (R Begay O, et al. AIDS Research and Human Retroviruses, 2011 Sep. 1; 27(9):1019-24) and the laboratory strains HIV-1MN (X4 virus) and HIV-1ADA-M ([…]). In FIG. 1B, anti-HIV activity was tested in PBMC (Trkola A, et al., J Virol. 1999 November; 73(11):8966-74) using the laboratory strains HIV-1NL4-3. In FIG. 1C, anti-HPV activity was evaluated in HeLa cells using a luciferase reporter gene assay (Buck C B, et al. PLoS Pathog. 2006 Jul. 1; 2(7):e69) and testing the antiviral activity against three different HPV PsV types (16, 18 and 45). In FIGS. 1A, 1B, 1C, IC50 values are depicted as a vertical dotted line with the 95% confidence interval and were calculated using a dose-response-inhibition analysis on GraphPad Prism v 5.0 software. All the non-toxic GRFT concentrations were tested in triplicates and are shown with the mean±SD.
(§2) The activity of GRFT against HIV was verified in standard in vitro assays. […]

The subject of a further assay is HIV-1MN (X4 virus). The experiment in a line: MAGI assay in TZM-bl cells, anti-HIV activity. Format: cell-based. To be noted: 72 h, FIG. 1A. As to the method: as §1, §2
The next assay relates to HIV-1NL4-3. The experiment in a line: Anti-HIV activity in PBMC, p24 ELISA. To be noted: activated PBMC, p24 ELISA day 7, FIG. 1B. Format: cell-based. As to the method:
as §1
Anti-HIV activity was also tested in peripheral blood mononucleated cells (PBMC) using the laboratory strains HIV-1NL4-3 according to conventional methods. See Trkola A, et al., J Virol. 1999 November; 73(11):8966-74. […]

Another assay deals with HPV16 PsV. The experiment in a line: HPV pseudovirus luciferase assay in HeLa cells. Format: cell-based.
In another assay the test system is HPV18 PsV. Nature of the assay: HPV pseudovirus luciferase assay in HeLa cells. Type of assay: cell-based. To be noted: 72 h, FIG. 1C. As to the method: as §1
(§3) The activity of GRFT against HPV pseudoviruses was also investigated. […]

Another assay has as its system HPV45 PsV. The experiment in a line: HPV pseudovirus luciferase assay in HeLa cells. Type of assay: cell-based. To be noted: 72 h, FIG. 1C. How it is done:
as §1, §3

In assay [2] the test system is HSV-2 G strain. Nature of the assay: Plaque inhibition assay in Vero cells, inhibition of virus adsorption. The note with it: 4° C., plaque forming units, FIG. 2A. Type of assay: cell-based.
Assay [3] has as its system HSV-2 G strain. The experiment in a line: Plaque inhibition assay in Vero cells, inhibition of virus entry. Type of assay: cell-based. To be noted: 4° C. then 37° C. 2 h, citric acid buffer, FIG. 2B.

Procedure for HIV-192BR014: Briefly, in order to test anti-HIV activity, activated PBMCs were treated with varying equipotent doses (based on IC50 of each API) of GRFT, ZA or GRFT+ZA at 37° C. 1 h prior to exposure to 100 TCID50 of HIV-192BR014 in the presence of the same doses of each compound or combination (triplicates). Medium-treated (virus only) cells were included as a control. Eighteen hours later the cells were washed and plated in the presence of medium with IL-2 (with the only exception of those samples treated with ZA, where ZA was replaced). This step was repeated on day 4 and the supernatants collected on day 7 to measured HIV-1 p24 levels by ELISA. […] Combination indexes (CI) were estimated using the Chou-Talalay method (Chou, T. C. Pharmacological Reviews, 2006, 58(3): p. 621-81) with the Cacusyn for Windows software (Biosoft, Cambridge, United Kingdom). As provided therein, “CI” refers to a quantitative measure of the degree of drug interaction as follows: additive effect (CI=1); synergism (CI <1), or antagonism (CI >1). “Dm” refers to the median-effect dose (IC50); “m” refers to a measurement of the sigmoidicity of the dose-effect curve, and also represents the slope of the median-effect plot; and “r” refers to the linear correlation coefficient of the median-effect plot. […]
Procedure for HPV16 PsV: The activity of GRFT against HPV pseudoviruses was also investigated. […] All the non-toxic GRFT concentrations were tested in triplicates. The graphics show the mean±SD.
Medium-treated (virus only) cells were included as a control. […] In order to assay for anti-HPV activity, HeLa cells were treated with varying equipotent doses of GRFT, C or GRFT+C (based on IC50 of each API) at 37° C. and immediately exposed to HPV16 PsV (triplicates). Medium-treated (virus only) cells were included as a control. The luciferase assay was performed 72 h after infection. […] As provided therein, “CI” refers to a quantitative measure of the degree of drug interaction as follows: additive effect (CI=1); synergism (CI <1), or antagonism (CI >1). […]

`CC(=O)[O-].CC(=O)[O-].[Zn+2]` [ZA, zinc acetate]: in the assay on HIV-192BR014, the IC50 was 48.3 µM. Besides, the “IC50 (95% confidence interval)” value in the assay on HSV-2 G strain [1] was found to be 58.2 µg/mL.

As to `CC(=O)[O-].CC(=O)[O-].[Cd+2]` [cadmium acetate], in the assay on HIV-1, the HIV-1 production result is on record as “inhibited HIV-1 production”.

`[Cl][Hg][Cl]` [mercury chloride]: in the assay on HIV-1, the HIV-1 production result is reported as “inhibited HIV-1 production”.

In the case of `[Cl-].[Cl-].[Zn+2]` [zinc chloride], the HIV-1 production result in the assay with HIV-1 was “inhibited HIV-1 production”.

As to Griffithsin [GRFT], the “anti-HIV activity in vitro” value in the assay on HIV-1ADA-M (R5 virus), in the assay on HIV-1MN (X4 virus) and with HIV-1NL4-3 was “potent anti-HIV activity” in each case. Moreover, the “in vitro activity against HPV16 PsV” value in the assay with HPV16 PsV (HeLa cells, luciferase assay, 72 h, FIG. 1C) was “moderate in vitro activity”. Moreover, the IC50 in the assay on HPV16 PsV (HeLa, HPV16 PsV, luciferase 72 h, combination value refers to the API in bold font, read-out: Dm, median-effect dose (IC50)) is 32.7 µM; in the assay with HIV-192BR014 it was 0.0004 µM. In addition, the “in vitro activity against HPV18 PsV” value with HPV18 PsV was “moderate in vitro activity”. Moreover, in the assay on HPV45 PsV, the “in vitro activity against HPV45 PsV” value was “moderate in vitro activity”. Moreover, the “inhibition of virus adsorption” value in the assay with HSV-2 G strain [2] is on record as “does not prevent viral adsorption”. The “inhibition of virus entry” value in the assay on HSV-2 G strain [3] is on record as “prevents HSV-2 entry”. Besides, the “IC50 (95% confidence interval)” value in the assay with HSV-2 G strain [1] came to 19 µg/mL.

What is called IC50 is the concentration at which inhibition is half-maximal.

The record behind these values is patent US11331370B2, “Combination product for the prevention of sexually transmitted infections” (priority 2014, dated 2022).
